Experimental data taken from the supplement of paper PMC10307832.

What was measured:
Experiment in all cases: relative viability (nuclei count vs DMSO), 5 days (fraction); higher = more cells survive
Kobe2602 + Dasatinib = compound: C1=CC(=CC=C1NC(=S)NNC2=C(C=C(C=C2[N+](=O)[O-])C(F)(F)F)[N+](=O)[O-])F [Kobe2602] + Cc1nc(Nc2ncc(C(=O)Nc3c(C)cccc3Cl)s2)cc(N2CCN(CCO)CC2)n1 [Dasatinib] (partner 0.075 µM)
In short: (§1)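 Lung cancer cell lines were seeded in 1536-well plates and dosed by pin tool the next day, with either a single drug or a fixed anchor-drug dose combined with five library-drug doses (not always all listed) spaced in √10 steps. Five days later, one step fixed the cells and stained their nuclei (final 0.05% Triton X-100, 1% formaldehyde, 1 ug/ml Hoechst), and nuclei were counted on 4× images. Relative viability is the nuclei count in treated wells divided by the count in vehicle wells, and each value is the median of duplicate plates.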

[1] = compound: COc1cc2nccc(Oc3ccc(NC(=O)C4(C(=O)Nc5ccc(F)cc5)CC4)cc3)c2cc1OC [Cabozantinib] + N=C(N)NC(=N)NCCc1ccccc1 [Phenformin] (partner 250 µM)
In short: as §1

Kobe2602 + OSI-027 = compound: C1=CC(=CC=C1NC(=S)NNC2=C(C=C(C=C2[N+](=O)[O-])C(F)(F)F)[N+](=O)[O-])F [Kobe2602] + COc1cccc2cc(-c3nc([C@H]4CC[C@H](C(=O)O)CC4)n4ncnc(N)c34)[nH]c12 [OSI-027] (partner 0.5 µM)
In short: as §1

[2] = compound: COc1cc2nccc(Oc3ccc(NC(=O)C4(C(=O)Nc5ccc(F)cc5)CC4)cc3)c2cc1OC [Cabozantinib] + CC(=O)Nc1cccc(-n2c(=O)n(C3CC3)c(=O)c3c(Nc4ccc(I)cc4F)n(C)c(=O)c(C)c32)c1 [Trametinib] (partner 0.02 µM)
In short: as §1

Cell Line | relative viability (Kobe2602 + Dasatinib; first compound 0.2 µM) | relative viability (Kobe2602 + Dasatinib; first compound 0.6325 µM) | relative viability (Kobe2602 + Dasatinib; first compound 2 µM) | relative viability (Kobe2602 + Dasatinib; first compound 6.325 µM) | relative viability (Kobe2602 + Dasatinib; first compound 20 µM) | relative viability ([1]; first compound 0.06325 µM) | relative viability ([1]; first compound 0.2 µM) | relative viability ([1]; first compound 0.6325 µM) | relative viability ([1]; first compound 2 µM) | relative viability (Kobe2602 + OSI-027; first compound 0.2 µM) | relative viability (Kobe2602 + OSI-027; first compound 0.6325 µM) | relative viability (Kobe2602 + OSI-027; first compound 2 µM) | relative viability (Kobe2602 + OSI-027; first compound 6.325 µM) | relative viability (Kobe2602 + OSI-027; first compound 20 µM) | relative viability ([2]; first compound 0.06325 µM) | relative viability ([2]; first compound 0.2 µM) | relative viability ([2]; first compound 0.6325 µM) | relative viability ([2]; first compound 2 µM) | relative viability ([1]; first compound 0.02 µM) | relative viability ([2]; first compound 0.02 µM)
NCI-H23 | 0.697 | 0.879 | 0.776 | 0.817 | 1.02 | 0.938 | 0.8 | 0.825 | 0.814 | 0.499 | 0.673 | 0.541 | 0.638 | 0.667 | 0.358 | 0.42 | 0.377 | 0.389 |  | 
NCI-H322M | 0.254 | 0.25 | 0.245 | 0.241 | 0.297 | 0.922 | 0.589 | 0.803 | 0.816 | 0.573 | 0.623 | 0.544 | 0.559 | 0.557 | 0.546 | 0.438 | 0.525 | 0.545 | 0.779 | 0.521
NCI-H2126 | 0.57 | 0.557 | 0.522 | 0.446 | 0.475 | 0.555 | 0.539 | 0.544 | 0.586 | 0.715 | 0.778 | 0.675 | 0.678 | 0.701 | 0.594 | 0.568 | 0.589 | 0.578 | 0.443 | 0.534
NCI-H647 | 0.244 | 0.338 | 0.158 | 0.17 | 0.2 | 0.596 | 0.541 | 0.49 | 0.322 | 0.647 | 0.751 | 0.57 | 0.841 | 0.639 | 0.451 | 0.449 | 0.424 | 0.41 | 0.488 | 0.541
LU99A | 0.427 | 0.461 | 0.433 | 0.525 | 0.615 | 0.934 | 0.925 | 0.696 | 0.89 | 0.336 | 0.329 | 0.281 | 0.342 | 0.333 | 0.56 | 0.535 | 0.573 | 0.41 | 0.766 | 0.475
NCI-H1666 | 0.833 | 0.825 | 0.777 | 0.899 | 0.735 | 0.559 | 0.607 | 0.544 | 0.601 | 0.879 | 0.831 | 0.851 | 0.928 | 0.789 | 0.83 | 0.798 | 0.883 | 0.878 | 0.568 | 0.845
NCI-H596 | 0.57 | 0.678 | 0.57 | 0.661 | 0.644 | 0.883 | 0.778 | 0.796 | 0.664 | 0.802 | 0.698 | 0.661 | 0.56 | 0.815 | 0.941 | 0.797 | 0.779 | 0.78 | 0.728 | 0.94
